Assay results: PubChem BioAssay AID248 (DTP/NCI, 2004)
“And” between values parts separate entries of the source, which are not always exact repeats. Identical values can stand only once. Toxic doses and inconclusive results are not listed.

System: L1210 leukemia ip in BDF1 mice, survival T/C
Assay: NCI In Vivo Anticancer Drug Screen. Data for tumor model L1210 Leukemia (intraperitoneal) in B6D2F1 (BDF1) mice
Conditions: endpoint: mean survival time, higher = longer survival
In short: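 Transplantable tumor model; survival measured in treated vs vehicle control mice. Value = treated/control.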

[1] = dose: 6.25 mg/kg/injection, schedule: Q01DX009 (ip), vehicle: saline
[2] = dose: 12.5 mg/kg/injection, schedule: Q01DX009 (ip), vehicle: saline
[3] = dose: 25.0 mg/kg/injection, schedule: Q01DX009 (ip), vehicle: saline
[4] = dose: 100.0 mg/kg/injection, schedule: Q04DX003 (ip), vehicle: Klucel (hydroxypropylcellulose) (HPC)
[5] = dose: 200.0 mg/kg/injection, schedule: Q04DX003 (ip), vehicle: Klucel (hydroxypropylcellulose) (HPC)
[6] = dose: 400.0 mg/kg/injection, schedule: Q04DX003 (ip), vehicle: Klucel (hydroxypropylcellulose) (HPC)
[7] = dose: 100.0 mg/kg/injection, schedule: Q04DX003 (ip), vehicle: saline
[8] = dose: 100.0 mg/kg/injection, schedule: Q01DX009 (ip), vehicle: saline with Tween-80
[9] = dose: 200.0 mg/kg/injection, schedule: Q01DX009 (ip), vehicle: saline with Tween-80
[10] = dose: 400.0 mg/kg/injection, schedule: Q01DX009 (ip), vehicle: saline with Tween-80
[11] = dose: 100.0 mg/kg/injection, schedule: Q01DX009 (ip), vehicle: saline
[12] = dose: 200.0 mg/kg/injection, schedule: Q01DX009 (ip), vehicle: saline
[13] = dose: 400.0 mg/kg/injection, schedule: Q01DX009 (ip), vehicle: saline
[14] = dose: 100.0 mg/kg/injection, schedule: Q01DX001 (ip), vehicle: saline with Tween-80
[15] = dose: 200.0 mg/kg/injection, schedule: Q01DX001 (ip), vehicle: saline with Tween-80
[16] = dose: 400.0 mg/kg/injection, schedule: Q01DX001 (ip), vehicle: saline with Tween-80

CC/C(C)=N\NC(N)=S
T/C (dose: 6.25 mg/kg/injection, schedule: Q01DX009 (ip), vehicle: Klucel (hydroxypropylcellulose) (HPC)): 91 % of control | T/C (dose: 12.5 mg/kg/injection, schedule: Q01DX009 (ip), vehicle: Klucel (hydroxypropylcellulose) (HPC)): 92 % of control | T/C (dose: 12.5 mg/kg/injection, schedule: Q04DX002 (ip), vehicle: Klucel (hydroxypropylcellulose) (HPC)): 92 % of control | T/C (dose: 25.0 mg/kg/injection, schedule: Q04DX002 (ip), vehicle: Klucel (hydroxypropylcellulose) (HPC)): 98 % of control

c1ccc(CN2CCNCC2)cc1
T/C [1]: 93 % of control | T/C [2]: 93 % of control | T/C [3]: 94 % of control

O=C1NOCC1N=Cc1ccccc1O (configuration not stated)
T/C [4]: 102 % of control | T/C [5]: 98 % of control | T/C [6]: 101 % of control

CCC[CH2][Sn]1([CH2]CCC)[O]OC(C)(CC)[O]1 (configuration not stated)
T/C (dose: 6.25 mg/kg/injection, schedule: Q01DX009 (ip), vehicle: saline sonified): 108 % of control

CCCC(CN)(CCN1CCOCC1)c1cccc2ccccc12 (configuration not stated)
T/C [7]: 98 % of control | T/C (dose: 200.0 mg/kg/injection, schedule: Q04DX003 (ip), vehicle: saline): 95 % of control

O=[N+]([O-])c1ccc(CN=NCc2ccc(Cl)cc2Cl)c(Cl)c1
T/C (dose: 50.0 mg/kg/injection, schedule: Q01DX009 (ip), vehicle: saline with Tween-80): 90 % of control | T/C [8]: 100 % of control | T/C [9]: 100 % of control | T/C [10]: 95 % of control

O=C1CNC(=O)N1CCCl
T/C (dose: 50.0 mg/kg/injection, schedule: Q04DX003 (ip), vehicle: saline): 100 % of control | T/C [11]: 100 % of control | T/C [7]: 103 % of control | T/C [12]: 104 % of control | T/C [13]: 113 % of control | T/C (dose: 400.0 mg/kg/injection, schedule: Q04DX003 (ip), vehicle: saline): 94 % of control

CC(C)(C)P(=O)(O)O
T/C [8]: 95 % of control

Cc1cccc(NC(=O)CCc2ccc(N3C(N)=NC(N)=NC3(C)C)cc2)c1
T/C (dose: 3.13 mg/kg/injection, schedule: Q01DX009 (ip), vehicle: saline): 102 % of control | T/C [1]: 94 % of control | T/C [2]: 97 % of control | T/C [3]: 96 % of control | T/C (dose: 50.0 mg/kg/injection, schedule: Q01DX009 (ip), vehicle: saline): 103 % of control

CCCCCC[Si](CCCCCC)CCCCCC
T/C (dose: 75.0 mg/kg/injection, schedule: Q04DX003 (ip), vehicle: saline with Tween-80): 93 % of control | T/C [11]: 102 % of control | T/C (dose: 150.0 mg/kg/injection, schedule: Q04DX003 (ip), vehicle: saline with Tween-80): 90 % of control | T/C [12]: 105 % of control | T/C (dose: 300.0 mg/kg/injection, schedule: Q04DX003 (ip), vehicle: saline with Tween-80): 88 % of control | T/C [13]: 93 % of control

CC(=O)OC1([N+](=O)[O-])c2ccccc2C2CC1c1ccccc12 (configuration not stated)
T/C (dose: 75.0 mg/kg/injection, schedule: Q04DX003 (ip), vehicle: Klucel (hydroxypropylcellulose) (HPC)): 112 % of control | T/C (dose: 100.0 mg/kg/injection, schedule: Q01DX001 (ip), vehicle: Klucel (hydroxypropylcellulose) (HPC)): 91 % of control | T/C (dose: 150.0 mg/kg/injection, schedule: Q04DX003 (ip), vehicle: Klucel (hydroxypropylcellulose) (HPC)): 107 % of control | T/C (dose: 200.0 mg/kg/injection, schedule: Q01DX001 (ip), vehicle: Klucel (hydroxypropylcellulose) (HPC)): 99 % of control | T/C (dose: 300.0 mg/kg/injection, schedule: Q04DX003 (ip), vehicle: Klucel (hydroxypropylcellulose) (HPC)): 97 % of control | T/C (dose: 400.0 mg/kg/injection, schedule: Q01DX001 (ip), vehicle: Klucel (hydroxypropylcellulose) (HPC)): 100 % of control

CCCCC(=O)N/N=C/c1ccc(Cl)cc1
T/C (dose: 100.0 mg/kg/injection, schedule: Q01DX001 (ip), vehicle: carboxymethylcellulose (CMC)): 93 % of control | T/C (dose: 200.0 mg/kg/injection, schedule: Q01DX001 (ip), vehicle: carboxymethylcellulose (CMC)): 107 % of control | T/C (dose: 400.0 mg/kg/injection, schedule: Q01DX001 (ip), vehicle: carboxymethylcellulose (CMC)): 91 % of control

CN(C)c1ccc(C(/C=N\O)(c2ccc(N(C)C)cc2)c2ccc(N(C)C)cc2)cc1
T/C (dose: 100.0 mg/kg/injection, schedule: Q01DX009 (ip), vehicle: Klucel (hydroxypropylcellulose) (HPC)): 101 % of control | T/C [4]: 90 % of control | T/C (dose: 200.0 mg/kg/injection, schedule: Q01DX009 (ip), vehicle: Klucel (hydroxypropylcellulose) (HPC)): 96 % of control | T/C [5]: 95 % of control | T/C (dose: 400.0 mg/kg/injection, schedule: Q01DX009 (ip), vehicle: Klucel (hydroxypropylcellulose) (HPC)): 101 % of control | T/C [6]: 93 % of control

NNC(=O)CNc1cccc(Br)c1
T/C (dose: 50.0 mg/kg/injection, schedule: Q04DX002 (ip), vehicle: Klucel (hydroxypropylcellulose) (HPC)): 101 % of control and 92 % of control | T/C (dose: 100.0 mg/kg/injection, schedule: Q04DX002 (ip), vehicle: Klucel (hydroxypropylcellulose) (HPC)): 114 % of control and 120 % of control | T/C (dose: 200.0 mg/kg/injection, schedule: Q04DX002 (ip), vehicle: Klucel (hydroxypropylcellulose) (HPC)): 108 % of control

CCCc1cc(CCC)nc(NNc2nc(CCC)cc(CCC)n2)n1
T/C [8]: 104 % of control | T/C [9]: 96 % of control | T/C [10]: 110 % of control

Clc1ccccc1CSc1ncnc2nc[nH]c12
T/C (dose: 16.0 mg/kg/injection, schedule: Q01DX Z (ip), vehicle: other): 96 % of control | T/C (dose: 31.0 mg/kg/injection, schedule: Q01DX Z (ip), vehicle: other): 106 % of control | T/C (dose: 40.0 mg/kg/injection, schedule: Q01DX009 (ip), vehicle: saline): 120 % of control | T/C (dose: 62.0 mg/kg/injection, schedule: Q01DX Z (ip), vehicle: other): 112 % of control | T/C (dose: 70.0 mg/kg/injection, schedule: Q01DX009 (ip), vehicle: saline): 110 % of control | T/C (dose: 187.0 mg/kg/injection, schedule: Q01DX Z (ip), vehicle: other): 150 % of control | T/C (dose: 265.0 mg/kg/injection, schedule: Q01DX001 (ip), vehicle: acetone): 124 % of control | T/C (dose: 265.0 mg/kg/injection, schedule: Q01DX001 (ip), vehicle: saline): 107 % of control | T/C (dose: 300.0 mg/kg/injection, schedule: Q01DX009 (ip), vehicle: acetone): 94 % of control | T/C (dose: 300.0 mg/kg/injection, schedule: Q01DX009 (ip), vehicle: saline): 123 % of control | T/C (dose: 375.0 mg/kg/injection, schedule: Q01DX Z (ip), vehicle: other): 103 % of control | T/C (dose: 400.0 mg/kg/injection, schedule: Q01DX001 (ip), vehicle: saline): 110 % of control | T/C [13]: 115 % of control | T/C (dose: 450.0 mg/kg/injection, schedule: Q01DX009 (ip), vehicle: acetone): 91 % of control | T/C (dose: 500.0 mg/kg/injection, schedule: Q01DX Z (ip), vehicle: other): 86 % of control

Cc1c(/C=N/N(CCO)CCO)[nH]c(=O)[nH]c1=O
T/C [14]: 103 % of control | T/C [15]: 103 % of control | T/C [16]: 98 % of control

CC(C)(C)C1CCC(N=C(N)CS)CC1 (configuration not stated)
T/C (dose: 1.5 mg/kg/injection, schedule: Q01DX001 (ip), vehicle: carboxymethylcellulose (CMC)): 98 % of control | T/C (dose: 3.0 mg/kg/injection, schedule: Q01DX001 (ip), vehicle: carboxymethylcellulose (CMC)): 98 % of control | T/C (dose: 6.0 mg/kg/injection, schedule: Q01DX001 (ip), vehicle: carboxymethylcellulose (CMC)): 95 % of control

NC(=O)c1ncc(-c2ccc(Cl)cc2)[nH]c1=O
T/C [8]: 91 % of control | T/C [9]: 97 % of control | T/C [10]: 97 % of control

COc1ccc(OC)c(C(=O)CCCCC(=O)O)c1
T/C [4]: 95 % of control | T/C [5]: 93 % of control | T/C [6]: 104 % of control

Cc1ccc(N=Nc2ccc(C)cc2NC(=O)Nc2cc(C)ccc2C)cc1
T/C [14]: 102 % of control | T/C [8]: 98 % of control | T/C (dose: 100.0 mg/kg/injection, schedule: Q04DX002 (ip), vehicle: saline with Tween-80): 87 % of control and 89 % of control | T/C [15]: 109 % of control | T/C [9]: 106 % of control | T/C (dose: 200.0 mg/kg/injection, schedule: Q04DX002 (ip), vehicle: saline with Tween-80): 91 % of control | T/C [16]: 90 % of control | T/C [10]: 102 % of control | T/C (dose: 400.0 mg/kg/injection, schedule: Q04DX002 (ip), vehicle: saline with Tween-80): 95 % of control and 89 % of control
